Assay [1] concerns Aβ42/Aβtotal in HEK293 cells stably overexpressing human APP. The class given is cell-based.
In assay [2] the test system is Aβ42/Aβtotal in CHO cells stably overexpressing human APP. Put plainly: Aβ sandwich ELISA, CHO cells stably overexpressing human APP. The class given is cell-based, Chinese hamster. (In general: ELISA stands for enzyme-linked immunosorbent assay.)

The results in this text go back to patent US20020015941A1, “Method for treatment of neurodegenerative diseases” (The General Hospital Corporation, priority 2000, published 2002).

Where two headings read alike, the source gives them in different places.

For `COc1ccc(CCCOC(Cn2ccnc2)c2ccc(OC)cc2)cc1` (stereo not shown) [SKF96365], the “ratio of Aβ42/Aβtotal (Aβ42 generation)” value in assay [1] (HEK293-APP, SKF96365 100 μM, nifedipine 1 μM, ω-conotoxin GVIA 1 μM, 12 hour treatment) is on record as “specifically elevated”; in assay [2] (CHO-APP, SKF96365 100 μM, nifedipine 1 μM, ω-conotoxin GVIA 1 μM, 12 hour treatment), “specifically elevated”.

ω-conotoxin GVIA: the “ratio of Aβ42/Aβtotal (Aβ42 generation)” value in assay [1] and in assay [2] was “no significant effect” throughout.
